From US9856279B2 (AGIOS PHARMACEUTICALS, INC, priority 2011, dated 2018)

How the values were obtained:
IDH1 R132H = IDH1 R132H (Homo sapiens, UniProt O75874, R132H); assay: Assay for IDH1 R132H inhibitors (NADPH/aKG, resazurin detection); format: biochemical; conditions: enzyme assay of Example 12; read-out: IDH1R132H IC50
How it was run: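 Read-out is resorufin fluorescence (Ex544/Em590) 5 min after adding a 30 μM resazurin detection mix. Before that, mutant enzyme (0.2 μg/ml in its mix) ran 50 min at room temperature with compound, 8 uM NADPH and 2 mM aKG (mix levels) in Tris pH 7.5 with NaCl, MgCl2, BSA.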

HT1080 cells = assay: Cellular assay for IDH1m inhibitors: inhibition of 2-HG production (LC-MS, 48 hours) in HT1080 cells; format: cell-based; conditions: Homo sapiens, HT-1080; inhibition of 2-HG production, HT1080 cells; read-out: HT1080 IC50
How it was run: (§1)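 Read-out: 2-HG in culture medium by LC-MS after 48 h compound exposure; IC50 = 50% reduction vs DMSO control. Cells plated 5000/well in DMEM/10% FBS, 37 °C, 5% CO2; DMSO 0.2% final.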

U87MG cells = assay: Cellular assay for IDH1m inhibitors: inhibition of 2-HG production (LC-MS, 48 hours) in U87MG cells; format: cell-based; conditions: Homo sapiens, U-87 MG, inhibition of 2-HG production, U87R132H cells; read-out: U87R132H IC50
How it was run: as §1

IDH1 R132H, sequence (O75874 whole entry R132H): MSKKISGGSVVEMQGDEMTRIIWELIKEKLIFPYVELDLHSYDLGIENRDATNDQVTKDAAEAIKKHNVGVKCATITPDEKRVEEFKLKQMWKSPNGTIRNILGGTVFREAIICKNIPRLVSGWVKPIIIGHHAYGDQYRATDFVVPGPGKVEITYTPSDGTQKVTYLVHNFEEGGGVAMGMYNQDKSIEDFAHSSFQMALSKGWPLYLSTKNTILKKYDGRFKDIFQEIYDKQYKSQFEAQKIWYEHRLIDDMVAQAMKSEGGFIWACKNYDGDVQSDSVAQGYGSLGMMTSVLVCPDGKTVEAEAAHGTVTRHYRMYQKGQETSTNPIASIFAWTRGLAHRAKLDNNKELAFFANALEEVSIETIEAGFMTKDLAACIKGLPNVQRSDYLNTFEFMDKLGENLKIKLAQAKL

IC50 (IDH1 R132H)	IC50 (HT1080 cells)	IC50 (U87MG cells)	Structure (SMILES)
< 500 nM	< 500 nM	< 500 nM	COCCC(=O)N1CCN(c2nc(C3CC3)c(-c3cccc4cccnc34)cc2C#N)C[C@H]1C [Compound 342, (R)-6-cyclopropyl-2-(4-(3-methoxypropanoyl)-3-methylpiperazin-1-yl)-5-(quinolin-8-yl)nicotinonitrile]
< 500 nM	< 500 nM	< 500 nM	C=Cc1cnc2c(-c3cc(C#N)c(N4CCN(C(=O)CCOC)[C@H](C5CC5)C4)nc3C3CC3)cccc2n1 [Compound 644, (R)-6-cyclopropyl-2-(3-cyclopropyl-4-(3-methoxypropanoyl)piperazin-1-yl)-5-(2-vinylquinoxalin-5-yl)nicotinonitrile]
< 500 nM	< 500 nM	< 500 nM	C=Cc1cc(-c2c(C3CC3)nc(N3CCN(C(=O)C[C@H]4CCO4)[C@H](C4CC4)C3)c(C#N)c2C)ccn1 [Compound 760, 2-cyclopropyl-6-((R)-3-cyclopropyl-4-(2-((R)-oxetan-2-yl)acetyl)piperazin-1-yl)-4-methyl-2′-vinyl-3,4′-bipyridine-5-carbonitrile]
< 500 nM	< 500 nM	< 500 nM	C=Cc1cc(Oc2cc(C#N)c(N3CCN(C(=O)CCOC)[C@H](C4CC4)C3)nc2C2CC2)ccn1 [Compound 693, (R)-6-cyclopropyl-2-(3-cyclopropyl-4-(3-methoxypropanoyl)piperazin-1-yl)-5-(2-vinylpyridin-4-yloxy)nicotinonitrile]
< 500 nM	< 500 nM	< 500 nM	C=Cc1cc(-c2c(C3CC3)nc(N3CCN(C(=O)CCOC)[C@H](C4CC4)C3)c(C#N)c2C)cnn1 [Compound 749, (R)-6-cyclopropyl-2-(3-cyclopropyl-4-(3-methoxypropanoyl)piperazin-1-yl)-4-methyl-5-(6-vinylpyridazin-4-yl)nicotinonitrile]
< 500 nM	< 500 nM	< 500 nM	C=Cc1cnnc(-c2cc(C#N)c(N3CCN(C(=O)C4CC4)[C@H](C4CC4)C3)nc2C2CC2)c1 [Compound 696, (R)-2-(4-(cyclopropanecarbonyl)-3-cyclopropylpiperazin-1-yl)-6-cyclopropyl-5-(5-vinylpyridazin-3-yl)nicotinonitrile]
< 500 nM	1000 to 10000 nM	500 to 1000 nM	COCCC(=O)N1CCN(c2nc(C3CC3)c(-c3ccc(F)nc3)c(C)c2C#N)C[C@H]1C [Compound 346]
500 to 1000 nM	1000 to 10000 nM	1000 to 10000 nM	CCc1cc(-c2cc(C#N)c(N3CCN(C(=O)CCOC)[C@H](C)C3)nc2C2CC2)ccn1 [Compound 426, (R)-2-cyclopropyl-2′-ethyl-6-(4-(3-methoxypropanoyl)-3-methylpiperazin-1-yl)-3,4′-bipyridine-5-carbonitrile]
< 500 nM	500 to 1000 nM	1000 to 10000 nM	COCCC(=O)N1CCN(c2nc(C3CC3)c(-c3cccc(CCO)c3)cc2C#N)C[C@H]1C [Compound 297, (R)-6-cyclopropyl-5-(3-(2-hydroxyethyl)phenyl)-2-(4-(3-methoxypropanoyl)-3-methylpiperazin-1-yl)nicotinonitrile]
< 500 nM	1000 to 10000 nM	1000 to 10000 nM	COCCC(=O)N1CCN(c2nc(C3CC3)c(-c3cccc(-c4cn[nH]c4)c3)cc2C#N)C[C@H]1C [Compound 406, (R)-6-cyclopropyl-2-[4-(3-methoxy-propionyl)-3-methyl-piperazin-1-yl]-5-[3-(1H-pyrazol-4-yl)-phenyl]-nicotinonitrile]
< 500 nM	< 500 nM	< 500 nM	COCCC(=O)N1CCN(c2nc(C3CC3)c(-c3cn(C)c(=O)c4ccccc34)cc2C#N)C[C@H]1C [Compound 418, (R)-6-cyclopropyl-2-[4-(3-methoxy-propionyl)-3-methyl-piperazin-1-yl]-5-(2-methyl-1-oxo-1,2-dihydro-isoquinolin-4-yl)-nicotinonitrile]
< 500 nM	500 to 1000 nM	< 500 nM	C=C(F)C(=O)N(C)c1cccc(-c2cc(C#N)c(N3CCN(C(=O)CCOC)[C@H](C)C3)nc2C2CC2)c1 [Compound 453, (R)—N-(3-(5-cyano-2-cyclopropyl-6-(4-(3-methoxypropanoyl)-3-methylpiperazin-1-yl)pyridin-3-yl)phenyl)-2-fluoro-N-methylacrylamide]
< 500 nM	< 500 nM	< 500 nM	C=Cc1ccnc(Nc2cc(C#N)c(N3CCN(C(=O)CCC4CCO4)[C@H](C4CC4)C3)nc2C2CC2)c1 (stereo partly drawn) [Compound 812, 6-cyclopropyl-2-((3R)-3-cyclopropyl-4-(3-(oxetan-2-yl)propanoyl)piperazin-1-yl)-5-((4-vinylpyridin-2-yl)amino)nicotinonitrile]
< 500 nM	< 500 nM	< 500 nM	C=Cc1ccc2c(-c3cc(C#N)c(N4CCN(C(=O)CCO)[C@H](C)C4)nc3C3CC3)cccc2n1 [Compound 633, (R)-6-cyclopropyl-2-(4-(3-hydroxypropanoyl)-3-methylpiperazin-1-yl)-5-(2-vinylquinolin-5-yl)nicotinonitrile]
< 500 nM	< 500 nM	< 500 nM	C=Cc1cc(-c2cc(C#N)c(N3CCN(C(=O)CCO)[C@H](C)C3)nc2C2CC2)c2ccccc2n1 [Compound 591, (R)-6-cyclopropyl-2-(4-(3-hydroxypropanoyl)-3-methylpiperazin-1-yl)-5-(2-vinylquinolin-4-yl)nicotinonitrile]
< 500 nM	1000 to 10000 nM	500 to 1000 nM	COCCC(=O)N1CCN(c2nc(C3CC3)c(-c3cccc4cnccc34)cc2C#N)CC1C(F)(F)F (stereo not drawn) [Compound 398, 6-cyclopropyl-5-(isoquinolin-5-yl)-2-(4-(3-methoxypropanoyl)-3-(trifluoromethyl)piperazin-1-yl)nicotinonitrile]
< 500 nM	< 500 nM	< 500 nM	C=Cc1cc(-c2cc(C#N)c(N3CCN(C(=O)COC)[C@H](C4CC4)C3)nc2C2CC2)cnn1 [Compound 715, (R)-6-cyclopropyl-2-(3-cyclopropyl-4-(2-methoxyacetyl)piperazin-1-yl)-5-(6-vinylpyridazin-4-yl)nicotinonitrile]
< 500 nM	< 500 nM	< 500 nM	C=Cc1cc(-c2cc(C#N)c(N3CCN(C(=O)CC(F)(F)F)[C@H](C)C3)nc2C2CC2)ccn1 [Compound 444, (R)-2-cyclopropyl-6-(3-methyl-4-(3,3,3-trifluoropropanoyl)piperazin-1-yl)-2′-vinyl-3,4′-bipyridine-5-carbonitrile]
< 500 nM	< 500 nM	< 500 nM	C=Cc1cc(-c2c(C3CC3)nc(N3CCN(C(=O)CCOC)[C@H](C4CC4)C3)c(C#N)c2C)ccn1 [Compound 558, (R)-2-cyclopropyl-6-(3-cyclopropyl-4-(3-methoxypropanoyl)piperazin-1-yl)-4-methyl-2′-vinyl-3,4′-bipyridine-5-carbonitrile]
500 to 1000 nM	1000 to 10000 nM	1000 to 10000 nM	COCCC(=O)N1CCN(c2nc(C3CC3)c(-c3ccc4cc(OC)ccc4c3)c(C)c2C#N)C[C@H]1C [Compound 278, (R)-6-cyclopropyl-5-(6-methoxynaphthalen-2-yl)-2-(4-(3-methoxypropanoyl)-3-methylpiperazin-1-yl)-4-methylnicotinonitrile]
< 500 nM	< 500 nM	< 500 nM	C=Cc1cc(-c2cc(C#N)c(N3CCN(C(=O)CC4CCCO4)[C@H](C4CC4)C3)nc2C2CC2)ccn1 (stereo partly drawn) [Compound 801, 2-cyclopropyl-6-((3R)-3-cyclopropyl-4-(2-(tetrahydrofuran-2-yl)acetyl)piperazin-1-yl)-2′-vinyl-[3,4′-bipyridine]-5-carbonitrile]
< 500 nM	< 500 nM	< 500 nM	C=Cc1cc(-c2c(C3CC3)nc(N3CCN(C(=O)CC4CCCO4)[C@H](C4CC4)C3)c(C#N)c2C)ccn1 (stereo partly drawn) [Compound 805, 2-cyclopropyl-6-((3R)-3-cyclopropyl-4-(2-(tetrahydrofuran-2-yl)acetyl)piperazin-1-yl)-4-methyl-2′-vinyl-[3,4′-bipyridine]-5-carbonitrile]
< 500 nM	< 500 nM	< 500 nM	C=CC(=O)N(C)c1cccc(-c2cc(C#N)c(N3CCN(C(=O)CCOC)[C@H](C)C3)nc2C2CC2)c1 [Compound 427]
< 500 nM	< 500 nM	< 500 nM	C#CC(=O)N1CC=C(c2cc(C#N)c(N3CCN(C(=O)C4CC4)[C@H](C)C3)nc2C2CC2)C1 [Compound 610, (R)-2-(4-(cyclopropanecarbonyl)-3-methylpiperazin-1-yl)-6-cyclopropyl-5-(1-propioloyl-2,5-dihydro-1H-pyrrol-3-yl)nicotinonitrile]
< 500 nM	< 500 nM	< 500 nM	C=Cc1cc(Nc2cc(C#N)c(N3CCN(C(=O)COC)[C@H](C(C)C)C3)nc2C2CC2)ccn1 [Compound 743, (R)-6-cyclopropyl-2-(3-isopropyl-4-(2-methoxyacetyl)piperazin-1-yl)-5-((2-vinylpyridin-4-yl)amino)nicotinonitrile]
< 500 nM	< 500 nM	< 500 nM	C=Cc1nc(-c2cc(C#N)c(N3CCN(C(=O)CCO)[C@H](C4CC4)C3)nc2C2CC2)c2ccccc2n1 [Compound 670, (R)-6-cyclopropyl-2-(3-cyclopropyl-4-(3-hydroxypropanoyl)piperazin-1-yl)-5-(2-vinylquinazolin-4-yl)nicotinonitrile]
